Assay results from ChEMBL document CHEMBL5338823, “Discovery of Novel 5,6-Dihydro-1,2,4-triazine Derivatives as Efficacious Glucagon-Like Peptide-1 Receptor Agonists” (J Med Chem, 2023).

Experiments:
[1] = Stability in human liver microsomes assessed as half-life at 1 uM measured upto 60 mins in the presence of NADPH by LC-MS/MS analysis; type: ADME, Microsome
[2] = Stability in human liver microsomes assessed as intrinsic clearance at 1 uM measured upto 60 mins in the presence of NADPH by LC-MS/MS analysis; type: ADME, Microsome; conditions: 1 h
[3] = Stability in mouse liver microsomes assessed as half-life at 1 uM measured upto 60 mins in the presence of NADPH by LC-MS/MS analysis; type: ADME, Microsome
[4] = Stability in rat liver microsomes assessed as intrinsic clearance at 1 uM measured upto 60 mins in the presence of NADPH by LC-MS/MS analysis; type: ADME, Microsome; conditions: 1 h
[5] = Stability in rat liver microsomes assessed as half-life at 1 uM measured upto 60 mins in the presence of NADPH by LC-MS/MS analysis; type: ADME, Microsome
[6] = Stability in mouse liver microsomes assessed as intrinsic clearance at 1 uM measured upto 60 mins in the presence of NADPH by LC-MS/MS analysis; type: ADME, Microsome; conditions: 1 h
[7] = molecular target: Glucagon-like peptide 1 receptor (Homo sapiens, UniProt P43220); assay: Agonist activity at N-terminal HA-tagged human GLP-1R expressed in HEK293 cells assessed as effect on intracellular cAMP accumulation incubated for 30 mins by LANCA ultra cAMP assay; type: functional, cell-based
Glucagon-like peptide 1 receptor, sequence (P43220 whole entry): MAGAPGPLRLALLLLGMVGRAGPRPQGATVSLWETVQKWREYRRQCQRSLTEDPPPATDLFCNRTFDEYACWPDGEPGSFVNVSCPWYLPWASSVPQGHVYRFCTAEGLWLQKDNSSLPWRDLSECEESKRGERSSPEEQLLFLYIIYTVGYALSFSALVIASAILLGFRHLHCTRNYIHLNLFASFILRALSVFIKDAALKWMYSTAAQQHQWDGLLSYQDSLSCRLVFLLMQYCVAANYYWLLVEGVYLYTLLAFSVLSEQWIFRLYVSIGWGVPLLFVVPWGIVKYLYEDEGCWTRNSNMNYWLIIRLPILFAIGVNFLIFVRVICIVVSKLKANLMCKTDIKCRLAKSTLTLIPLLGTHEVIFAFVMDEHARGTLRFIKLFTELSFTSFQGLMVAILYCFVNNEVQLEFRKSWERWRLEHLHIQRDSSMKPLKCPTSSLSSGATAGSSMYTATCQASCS

[8] = molecular target: Voltage-gated inwardly rectifying potassium channel KCNH2 (Homo sapiens, UniProt Q12809); assay: Inhibition of hERG
Voltage-gated inwardly rectifying potassium channel KCNH2, sequence (Q12809 whole entry): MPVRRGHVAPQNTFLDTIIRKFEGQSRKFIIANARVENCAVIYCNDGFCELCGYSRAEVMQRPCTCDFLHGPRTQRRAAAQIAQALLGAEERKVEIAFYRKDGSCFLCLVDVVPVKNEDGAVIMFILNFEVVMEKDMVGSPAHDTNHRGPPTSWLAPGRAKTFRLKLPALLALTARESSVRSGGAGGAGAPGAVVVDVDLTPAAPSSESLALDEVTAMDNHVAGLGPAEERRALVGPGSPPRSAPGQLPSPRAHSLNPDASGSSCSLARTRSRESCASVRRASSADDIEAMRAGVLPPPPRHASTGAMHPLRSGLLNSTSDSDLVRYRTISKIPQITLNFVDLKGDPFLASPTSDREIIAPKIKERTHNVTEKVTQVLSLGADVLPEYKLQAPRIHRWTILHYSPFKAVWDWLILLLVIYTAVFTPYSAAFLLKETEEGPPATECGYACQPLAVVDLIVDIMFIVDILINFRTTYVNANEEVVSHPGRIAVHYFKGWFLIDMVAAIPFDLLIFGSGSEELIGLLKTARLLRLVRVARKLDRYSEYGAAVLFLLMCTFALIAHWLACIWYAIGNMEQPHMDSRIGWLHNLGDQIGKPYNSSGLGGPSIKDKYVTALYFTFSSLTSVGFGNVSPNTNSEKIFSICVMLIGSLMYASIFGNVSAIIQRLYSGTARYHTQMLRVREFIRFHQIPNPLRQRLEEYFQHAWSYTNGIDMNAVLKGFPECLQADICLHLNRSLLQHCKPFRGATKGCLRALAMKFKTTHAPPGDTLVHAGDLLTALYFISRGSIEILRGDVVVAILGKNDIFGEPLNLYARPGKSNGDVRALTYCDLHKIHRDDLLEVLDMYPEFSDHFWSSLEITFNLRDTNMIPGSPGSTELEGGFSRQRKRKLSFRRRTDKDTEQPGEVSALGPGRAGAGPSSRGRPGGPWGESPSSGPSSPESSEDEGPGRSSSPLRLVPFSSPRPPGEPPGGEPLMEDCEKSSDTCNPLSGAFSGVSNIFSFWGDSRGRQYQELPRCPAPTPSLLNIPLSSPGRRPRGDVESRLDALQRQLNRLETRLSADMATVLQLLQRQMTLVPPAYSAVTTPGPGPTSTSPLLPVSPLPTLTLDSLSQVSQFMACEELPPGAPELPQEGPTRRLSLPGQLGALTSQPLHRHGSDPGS

[9] = Drug concentration in C57BL/6J mouse plasma at 5 mg/kg, po measured after 1 hrs by LC-MS/MS analysis; type: ADME, organism-based
hERG (KCNH2) [10] = molecular target: T1, hERG (KCNH2) (Homo sapiens, UniProt Q12809); assay: Inhibition of hERG at 40 uM relative to control
T1 sequence (Q12809 whole entry): as above

[11] = Drug concentration in C57BL/6J mouse plasma at 5 mg/kg, po measured after 4 hrs by LC-MS/MS analysis; type: ADME, organism-based
[12] = Apparent permeability across apical to basolateral side in human Caco-2 cells at 10 uM measured after 95 mins by LC-MS/MS analysis; type: ADME, cell-based
hERG (KCNH2) [13] = molecular target: T1, hERG (KCNH2); assay: Inhibition of hERG at 3 uM relative to control

SMILES | half-life at 1 µM [1] [h] | CLH [2] [mL/min/g] | half-life at 1 µM [3] [h] | CLH [4] [mL/min/g] | half-life at 1 µM [5] [h] | CLH [6] [mL/min/g] | EC50 [7] [µM] | IC50 [8] [µM] | concentration at 1 h [9] [ng/mL] | inhibition at 40 µM (hERG (KCNH2) [10]) [%] | concentration at 4 h [11] [ng/mL] | Papp A→B at 1.583 h, 10 µM [12] [×10⁻⁶ cm/s] | inhibition at 3 µM (hERG (KCNH2) [13]) [%]
O=C(O)c1cc(F)c2nc(CN3CCN(c4cccc(OCc5ccc(Cl)c6cc(F)oc56)n4)C=N3)n(C[C@@H]3CCO3)c2c1 | 2.77 | 13 | 1.72 | 22 | 1.58 | 21 | – | – | – | – | – | – | –
N#Cc1ccc(COc2cccc(N3CCC4(CN(Cc5nc6ccc(C(=O)O)cc6n5C[C@@H]5CCO5)C4)C3)n2)c(F)c1 | – | – | – | – | – | – | 5.01 | – | – | – | – | – | –
COc1cc(C#N)ccc1COc1cccc(N2C=NN(Cc3nc4c(F)cc(C(=O)O)cc4n3C[C@@H]3CCO3)CC2)n1 | 5.45 | 6 | 3.03 | 16 | 2.23 | 12 | – | > 40 | 12 | 50 | 3 | 0.19 | –
COc1cc(N)c(Cl)cc1C(=O)N[C@H]1CCN(CCCOc2ccc(F)cc2)C[C@H]1OC [REL-CISAPRIDE] | – | – | – | – | – | – | – | – | – | – | – | – | 92
N#Cc1ccc(COc2cccc(N3C[C@H]4CN(Cc5nc6ccc(C(=O)O)cc6n5C[C@@H]5CCO5)C[C@H]4C3)n2)c(F)c1 | – | – | – | – | – | – | > 10 | – | – | – | – | – | –
N#Cc1ccc(COc2cccc(N3CC4(CC3=O)CN(Cc3nc5ccc(C(=O)O)cc5n3C[C@@H]3CCO3)C4)n2)c(F)c1 | – | – | – | – | – | – | > 10 | – | – | – | – | – | –
O=C(O)c1cc(F)c2nc(CN3CCN(c4cccc(OCc5ccc(Cl)c6c5OCC6)n4)C=N3)n(C[C@@H]3CCO3)c2c1 | 1.5 | 23 | 0.517 | 59 | 0.6 | 67 | – | 0.05 | – | 51 | – | – | –
N#Cc1ccc(COc2cccc(N3C=NN(Cc4nc5c(F)cc(C(=O)O)cc5n4C[C@@H]4CCO4)CC3)n2)c2occc12 | 2.48 | 14 | 2.07 | 33 | 1.05 | 17 | – | > 40 | – | 30 | – | – | –
